Assay results as given in patent US8044079B2, “Substituted oxindole derivatives, medicaments containing said derivatives and use thereof” (Abbott GmbH & Co. KG, priority 2005, dated 2011).

Each molecule was assayed against T1, human vasopressin V1b receptor (Homo sapiens, UniProt P47901) (assay: Vasopressin V1b receptor binding test). Conditions: membranes of CHO-K1 cells with human V1b receptor, displacement of 1.5 nM 3H-AVP; for compounds with more than one stereogenic center the diastereomer with greater affinity.
T1 construct: expressed in transfected cells; host or cells: CHO-K1 (cell line hV1b_3H2_CHO), membrane preparation
T1 sequence (P47901 1-424): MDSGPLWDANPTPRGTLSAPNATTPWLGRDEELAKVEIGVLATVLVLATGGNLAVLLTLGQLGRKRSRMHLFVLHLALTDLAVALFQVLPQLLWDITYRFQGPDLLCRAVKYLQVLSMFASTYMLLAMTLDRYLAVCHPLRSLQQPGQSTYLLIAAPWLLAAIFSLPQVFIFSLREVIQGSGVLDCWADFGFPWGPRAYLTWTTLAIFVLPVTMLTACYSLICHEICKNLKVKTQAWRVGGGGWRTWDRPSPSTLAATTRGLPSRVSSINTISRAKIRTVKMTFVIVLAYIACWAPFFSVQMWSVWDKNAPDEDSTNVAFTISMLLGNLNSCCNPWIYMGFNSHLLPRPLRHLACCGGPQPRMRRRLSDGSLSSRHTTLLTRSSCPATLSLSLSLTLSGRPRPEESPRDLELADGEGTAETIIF
Procedure: Vasopressin V1b Receptor Binding Test:
The test substances were dissolved at a concentration of 10^−2 M in DMSO, and were further diluted to 5×10^−4 M to 5×10^−9 M in DMSO. This DMSO predilution series was diluted 1:10 with test buffer. In the test assay the substance concentration was further diluted to 1:5 (2% DMSO in the assay).
The membrane pellet was homogenized again as described and centrifuged, and was then taken up in 50 mM tris-HCl at pH 7.4, homogenized, and frozen in aliquots at −190° C. and stored in liquid nitrogen.
The incubation buffer was 50 mM tris, 10 mM MgCl2, and 0.1% BSA at pH 7.4. […] The nonspecific binding was determined using 1 μM AVP (Bachem #H1780). All determinations were performed in triplicate. After incubation (60 minutes at room temperature), the free radioligand was filtered off by vacuum filtration (Skatron 7000 cell harvester) through Wathman GF/B fiberglass filter mats, and the filters were transferred to scintillation vessels. The liquid scintillation measurement was conducted in a Model 2000 or 2200CA TriCarb unit (Packard). The measured cpm was converted to dpm using a standard quench series.
The binding parameters were calculated by nonlinear regression in SAS.
The affinities of the compounds according to the invention for human vasopressin receptor V1b were measured according to the above test, and the affinity constants (Ki) were determined.

| SMILES | Ki [nM] |
| --- | --- |
| CCCNCc1ccc(C2(N3CCC[C@H]3c3ncco3)C(=O)N(S(=O)(=O)c3ccc(OC)cc3)c3ccc(Cl)cc32)c(OC)c1 (stereo partly drawn) [Example 20, 5-Chloro-1-(4-methoxybenzenesulfonyl)-3-(2-methoxy-4-propylaminomethylphenyl)-3-((S)-2-oxazol-2-yl-pyrrolidin-1-yl)-1,3-dihydroindol-2-one] | < 10 |
| COc1ccc(S(=O)(=O)N2C(=O)C(c3ccc(CN(C)C(C)C)cc3OC)(N3CCC[C@H]3c3ncco3)c3cc(Cl)ccc32)cc1 (stereo partly drawn) [Example 21, 5-Chloro-3-{4-[(isopropylmethylamino)methyl]-2-methoxyphenyl}-1-(4-methoxybenzenesulfonyl)-3-((S)-2-oxazol-2-yl-pyrrolidin-1-yl)-1,3-dihydroindol-2-one] | < 10 |
| COCCN(C)Cc1ccc(C2(N3CCC[C@H]3c3ncco3)C(=O)N(S(=O)(=O)c3ccc(OC)cc3)c3ccc(Cl)cc32)c(OC)c1 (stereo partly drawn) [Example 22, 5-Chloro-1-(4-methoxybenzenesulfonyl)-3-(2-methoxy-4-{[(2-methoxyethyl)methylamino]methyl}phenyl)-3-((S)-2-oxazol-2-yl-pyrrolidin-1-yl)-1,3-dihydroindol-2-one] | 10 to 100 |
| COc1ccc(S(=O)(=O)N2C(=O)C(c3ccc(CN4CCN(C)CC4)cc3OC)(N3CCC[C@H]3c3ncco3)c3cc(Cl)ccc32)cc1 (stereo partly drawn) [Example 23, 5-Chloro-1-(4-methoxybenzenesulfonyl)-3-[2-methoxy-4-(4-methylpiperazin-1-ylmethyl)phenyl]-3-((S)-2-oxazol-2-yl-pyrrolidin-1-yl)-1,3-dihydroindol-2-one] | < 10 |
| CCN(C)Cc1ccc(OC)c(C2(N3CCC[C@H]3c3ncco3)C(=O)N(S(=O)(=O)c3ccc(OC)cc3)c3cc(Cl)ccc32)c1 (stereo partly drawn) [Example 30, 6-Chloro-3-{5-[(ethylmethylamino)methyl]-2-methoxyphenyl}-1-(4-methoxybenzenesulfonyl)-3-((S)-2-oxazol-2-yl-pyrrolidin-1-yl)-1,3-dihydroindol-2-one] | 100 to 1000 |
| CCN(CC)Cc1ccc(OC)c(C2(N3CCC[C@H]3c3ncco3)C(=O)N(S(=O)(=O)c3ccc(OC)cc3)c3cc(Cl)ccc32)c1 (stereo partly drawn) [Example 31, 6-Chloro-3-(5-diethylaminomethyl-2-methoxyphenyl)-1-(4-methoxybenzenesulfonyl)-3-((S)-2-oxazol-2-yl-pyrrolidin-1-yl)-1,3-dihydroindol-2-one] | 100 to 1000 |
| COc1ccc(S(=O)(=O)N2C(=O)C(c3cc(CN(C)C(C)C)ccc3OC)(N3CCC[C@H]3c3ncco3)c3ccc(Cl)cc32)cc1 (stereo partly drawn) [Example 33, 6-Chloro-3-{5-[(isopropylmethylamino)methyl]-2-methoxyphenyl}-1-(4-methoxybenzenesulfonyl)-3-((S)-2-oxazol-2-yl-pyrrolidin-1-yl)-1,3-dihydroindol-2-one] | 100 to 1000 |
| COc1ccc(S(=O)(=O)N2C(=O)C(c3cc(CN4CCN(C)CC4)ccc3OC)(N3CCC[C@H]3c3ncco3)c3ccc(Cl)cc32)cc1 (stereo partly drawn) [Example 35, 6-Chloro-1-(4-methoxybenzenesulfonyl)-3-[2-methoxy-5-(4-methylpiperazin-1-ylmethyl)phenyl]-3-((S)-2-oxazol-2-yl-pyrrolidin-1-yl)-1,3-dihydroindol-2-one] | 100 to 1000 |
| COc1ccc(S(=O)(=O)N2C(=O)C(c3cc(CN4CCC4)ccc3OC)(N3CCC[C@H]3c3ncco3)c3ccc(Cl)cc32)cc1 (stereo partly drawn) [Example 38, 3-(5-Azetidin-1-ylmethyl-2-methoxyphenyl)-6-chloro-1-(4-methoxybenzenesulfonyl)-3-((S)-2-oxazol-2-yl-pyrrolidin-1-yl)-1,3-dihydroindol-2-one] | 100 to 1000 |

Results, then the molecule that gave them:

| Ki [nM] | SMILES |
| --- | --- |
| < 10 | CCN(CC)Cc1ccc(C2(N3CCC[C@H]3c3ncco3)C(=O)N(S(=O)(=O)c3ccc(OC)cc3)c3ccc(Cl)cc32)c(OC)c1 (stereo partly drawn) [Example 19, 5-Chloro-3-(4-diethylaminomethyl-2-methoxyphenyl)-1-(4-methoxybenzenesulfonyl)-3-((S)-2-oxazol-2-yl-pyrrolidin-1-yl)-1,3-dihydroindol-2-one] |
| < 10 | COc1ccc(S(=O)(=O)N2C(=O)C(c3ccc(CN4CCNCC4)cc3OC)(N3CCC[C@H]3c3ncco3)c3cc(Cl)ccc32)cc1 (stereo partly drawn) [Example 24, 5-Chloro-1-(4-methoxybenzenesulfonyl)-3-(2-methoxy-4-piperazin-1-ylmethylphenyl)-3-((S)-2-oxazol-2-yl-pyrrolidin-1-yl)-1,3-dihydroindol-2-one] |
| < 10 | COc1ccc(S(=O)(=O)N2C(=O)C(c3ccc(CN4CCCC4)cc3OC)(N3CCC[C@H]3c3ncco3)c3cc(Cl)ccc32)cc1 (stereo partly drawn) [Example 25, 5-Chloro-1-(4-methoxybenzenesulfonyl)-3-(2-methoxy-4-pyrrolidin-1-ylmethylphenyl)-3-((S)-2-oxazol-2-yl-pyrrolidin-1-yl)-1,3-dihydroindol-2-one] |
| < 10 | COc1ccc(S(=O)(=O)N2C(=O)C(c3ccc(CN4CCCCC4)cc3OC)(N3CCC[C@H]3c3ncco3)c3cc(Cl)ccc32)cc1 (stereo partly drawn) [Example 26, 5-Chloro-1-(4-methoxybenzenesulfonyl)-3-(2-methoxy-4-piperidin-1-ylmethylphenyl)-3-((S)-2-oxazol-2-yl-pyrrolidin-1-yl)-1,3-dihydroindol-2-one] |
| 100 to 1000 | COc1ccc(S(=O)(=O)N2C(=O)C(c3cc(CN(C)C)ccc3OC)(N3CCC[C@H]3c3ncco3)c3ccc(Cl)cc32)cc1 (stereo partly drawn) [Example 28, 6-Chloro-3-(5-dimethylaminomethyl-2-methoxyphenyl)-1-(4-methoxybenzenesulfonyl)-3-((S)-2-oxazol-2-yl-pyrrolidin-1-yl)-1,3-dihydroindol-2-one] |
| 100 to 1000 | CCCNCc1ccc(OC)c(C2(N3CCC[C@H]3c3ncco3)C(=O)N(S(=O)(=O)c3ccc(OC)cc3)c3cc(Cl)ccc32)c1 (stereo partly drawn) [Example 32, 6-Chloro-1-(4-methoxybenzenesulfonyl)-3-(2-methoxy-5-propylaminomethylphenyl)-3-((S)-2-oxazol-2-yl-pyrrolidin-1-yl)-1,3-dihydroindol-2-one] |
| 100 to 1000 | COCCN(C)Cc1ccc(OC)c(C2(N3CCC[C@H]3c3ncco3)C(=O)N(S(=O)(=O)c3ccc(OC)cc3)c3cc(Cl)ccc32)c1 (stereo partly drawn) [Example 34, 6-Chloro-1-(4-methoxybenzenesulfonyl)-3-(2-methoxy-5-{[(2-methoxyethyl)methylamino]methyl}phenyl)-3-((S)-2-oxazol-2-yl-pyrrolidin-1-yl)-1,3-dihydroindol-2-one] |
| 100 to 1000 | COc1ccc(S(=O)(=O)N2C(=O)C(c3cc(CN4CCOCC4)ccc3OC)(N3CCC[C@H]3c3ncco3)c3ccc(Cl)cc32)cc1 (stereo partly drawn) [Example 37, 6-Chloro-1-(4-methoxybenzenesulfonyl)-3-(2-methoxy-5-morpholin-4-ylmethylphenyl)-3-((S)-2-oxazol-2-yl-pyrrolidin-1-yl)-1,3-dihydroindol-2-one] |
| 100 to 1000 | COc1ccc(S(=O)(=O)N2C(=O)C(c3cc(CN4CCCC4)ccc3OC)(N3CCC[C@H]3c3ncco3)c3ccc(Cl)cc32)cc1 (stereo partly drawn) [Example 39, 6-Chloro-1-(4-methoxybenzenesulfonyl)-3-(2-methoxy-5-pyrrolidin-1-ylmethylphenyl)-3-((S)-2-oxazol-2-yl-pyrrolidin-1-yl)-1,3-dihydroindol-2-one] |
